# Test system: female subjects diagnosed with vaginal atrophy
# Assay: Double blind placebo control study: tissue morphometry by vaginal biopsy after topical Formula I(n) capsules
# Assay type: in vivo, human
# From the text: The histology and morphometry of vaginal atrophy is characterized by a reduction in dermal and epidermal thickness, dermal collagen content (hydroxyproline), the number of cells in the tissue (by DNA content and histology), and dermal and epidermal protein content as well as reduction in overall dermal metabolism as measured by [^14 C]-glucose. These parameters are all increased by the action of topical administration of Formula I(n).
# In a double blind placebo control study, a baseline tissue morphometry was determined by biopsy on 20 female subjects diagnosed with vaginal atrophy. Subjects applied a capsule daily containing either Formula I(n) (3%) and avocado oil or simply a capsule of avocado oil alone.
# [1] = biopsy after 60 days, daily capsule 3% in avocado oil
# [2] = biopsy after 60 days, daily capsule 3% in avocado oil, over control
compound,measurement,setting,value
"CCCCC/C=C\C/C=C\CCCCCCCc1ccco1 [Formula I(n), 2-(8Z,11Z-heptadecadienyl)furan]",increase in dermal thickness,"biopsy after 60 days vs baseline, daily capsule 3% in avocado oil, control vehicle 7%",53%
same,increase in epidermal thickness,"biopsy after 60 days vs baseline, daily capsule 3% in avocado oil, control vehicle 9%",76%
same,Dermal fibroblast population (cross section) increase,[1],231%
same,Dermal fibroblast population (number) increase,[1],127%
same,increase in aerobic glucose utilization or metabolism,[1],413%
same,increase in total thickness (epidermal and dermal combined),[1],156%
same,DNA content increase over control,[2],68%
same,Dermal collagen content increase over control,[2],74%
same,Protein content increase over control,[2],122%
same,inflammatory response,"biopsy after 60 days, daily topical capsule, Formula I(n) (3%) and avocado oil",No observable inflammatory response
same,"dermal and epidermal thickness, dermal collagen content, number of cells, dermal and epidermal protein content, overall dermal metabolism","topical administration, summary statement",increased

# From patent US11602518B2, “Lipidic furan, pyrrole, and thiophene compounds for use in the treatment of atrophic vaginitis” (Avoscience, LLC, priority 2016, dated 2023)
